What was measured:
[1] = target: T1, 1D-myo-inositol 2-acetamido-2-deoxy-alpha-D-glucopyranoside deacetylase (Mycobacterium tuberculosis, UniProt P9WJN3); assay: Inhibition of Mycobacterium tuberculosis MshB by fluorescence-detected HPLC assay
T1 sequence (P9WJN3 whole entry): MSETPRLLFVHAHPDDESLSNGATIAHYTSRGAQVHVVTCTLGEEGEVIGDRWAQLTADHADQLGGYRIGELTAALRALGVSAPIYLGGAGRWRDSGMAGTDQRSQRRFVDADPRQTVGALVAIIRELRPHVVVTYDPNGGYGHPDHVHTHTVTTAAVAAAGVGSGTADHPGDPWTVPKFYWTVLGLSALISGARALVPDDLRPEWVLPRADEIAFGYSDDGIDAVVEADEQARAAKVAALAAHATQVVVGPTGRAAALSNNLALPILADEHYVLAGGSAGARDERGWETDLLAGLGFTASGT

[2] = target: T2, Mycothiol S-conjugate amidase (Mycobacterium tuberculosis, UniProt P9WJN1); assay: Inhibition of Mycobacterium tuberculosis MCA by fluorescence-detected HPLC assay
T2 sequence (P9WJN1 whole entry): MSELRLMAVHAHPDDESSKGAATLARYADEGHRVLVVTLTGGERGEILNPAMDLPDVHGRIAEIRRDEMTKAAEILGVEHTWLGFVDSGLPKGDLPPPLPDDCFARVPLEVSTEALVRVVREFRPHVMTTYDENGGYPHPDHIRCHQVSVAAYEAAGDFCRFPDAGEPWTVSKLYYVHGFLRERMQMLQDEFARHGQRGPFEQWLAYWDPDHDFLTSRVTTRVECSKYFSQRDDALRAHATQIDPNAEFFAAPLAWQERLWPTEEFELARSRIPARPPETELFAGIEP

Row | Compound | IC50 [1] [µM] | IC50 [2] [µM]
1 | CC(C)(C)C(=O)ON[C@@H](CCc1ccccc1)C(=O)N[C@H]1[C@H](O)[C@@H](O)[C@H](CO)O[C@H]1SC1CCCCC1 | > 200 | 145
2 | O=C(N[C@H]1[C@H](O)[C@@H](O)[C@H](CO)O[C@H]1SC1CCCCC1)c1ccc(-c2ccc(Cl)cc2)o1 (single isomer, unassigned) | 7 | 33
3 | O=S(=O)(CCCCc1ccccc1)N[C@H]1[C@H](O)[C@@H](O)[C@H](CO)O[C@H]1SC1CCCCC1 (single isomer, unassigned) | 101 | 120
4 | O=C(N[C@H]1[C@H](O)[C@@H](O)[C@H](CO)O[C@H]1SC1CCCCC1)C1CCOC(c2cccc(F)c2)=N1 (single isomer, unassigned) | 10 | > 200
5 | O=C(N[C@H]1[C@H](O)[C@@H](O)[C@H](CO)O[C@H]1SC1CCCCC1)C1COC(c2cccc(F)c2)=N1 (single isomer, unassigned) | 28 | > 200
6 | O=S(=O)(/C=C/CCc1ccccc1)N[C@H]1[C@H](O)[C@@H](O)[C@H](CO)O[C@H]1SC1CCCCC1 (single isomer, unassigned) | 105 | 90
